Results as given in the supplement of paper PMC10307832.

compound: Cc1ccccc1C(C(=O)NC1CCCCC1)N(C(=O)Cn1ccnc1C)c1cccc(F)c1 [IDH-C35] + CS(=O)(=O)N1CCN(Cc2cc3nc(-c4cccc5[nH]ncc45)nc(N4CCOCC4)c3s2)CC1 [Pictilisib] (partner 1 µM); assay: relative viability (nuclei count vs DMSO), 5 days (fraction); higher = more cells survive; conditions: first compound 0.08 µM
Method in brief: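 Relative viability divides the nuclei count in treated wells by that in vehicle wells. Lung cancer cell lines were seeded in 1536-well plates, dosed by pin tool the next day, and fixed and stained after 5 days in one step with final 0.05% Triton X-100, 1% formaldehyde and 1 ug/ml Hoechst. Dosing was a single drug or a fixed anchor-drug dose plus five library-drug doses (not always all listed) in √10 steps, and values are medians of duplicate plates imaged at 4×.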

Cell Line | relative viability
H3255 | 0.454
COR-L23 | 0.85
COR-L 105 | 0.442
IA-LM | 0.381
LOU-NH91 | 0.528
ChaGo-K-1 | 0.451
NCI-H2170 | 0.33
A549 | 0.532
NCI-H2009 | 0.903
NCI-H661 | 0.346
SK-LU-1 | 0.535
NCI-H1299 | 0.818
CAL-12T | 0.347
NCI-H2228 | 0.328
NCI-H2023 | 0.285
NCI-H1563 | 0.646

same assay, conditions: first compound 0.253 µM

Cell Line | relative viability
NCI-H727 | 0.522
NCI-H1650 | 0.576
EBC-1 | 0.414
NCI-H1703 | 0.264
NCI-H1993 | 0.853
SW 1573 | 0.502
NCI-H838 | 0.506
LCLC-103H | 0.62
NCI-H520 | 0.283
NCI-H2126 | 0.508
EMC-BAC-2 | 0.55
NCI-H2085 | 0.523
Calu-6 | 0.895
HCC-366 | 0.132
NCI-H1666 | 0.404
NCI-H596 | 0.442
LK-2 | 0.501
NCI-H2087 | 0.901

Cell Line | relative viability
SK-MES-1 | 0.414
H3255 | 0.546
COR-L23 | 0.769
COR-L 105 | 0.477
IA-LM | 0.382
LOU-NH91 | 0.548
ChaGo-K-1 | 0.71
NCI-H2170 | 0.378
A549 | 0.504
NCI-H2009 | 0.75
NCI-H661 | 0.446
SK-LU-1 | 0.483
NCI-H1299 | 0.671
CAL-12T | 0.429
NCI-H2228 | 0.296
NCI-H2023 | 0.22
NCI-H1563 | 0.682

same assay, conditions: first compound 0.8 µM

Cell Line | relative viability
NCI-H727 | 0.54
NCI-H1650 | 0.557
EBC-1 | 0.339
NCI-H1703 | 0.285
NCI-H1993 | 0.766
SW 1573 | 0.439
NCI-H838 | 0.453
LCLC-103H | 0.536
NCI-H520 | 0.283
NCI-H2126 | 0.48
EMC-BAC-2 | 0.51
NCI-H2085 | 0.451
Calu-6 | 0.881
HCC-366 | 0.169
NCI-H1666 | 0.322
NCI-H596 | 0.435
LK-2 | 0.456
NCI-H2087 | 0.83
SK-MES-1 | 0.358
H3255 | 0.474
COR-L23 | 0.833
COR-L 105 | 0.354
IA-LM | 0.33
LOU-NH91 | 0.516
ChaGo-K-1 | 0.742
NCI-H2170 | 0.332
A549 | 0.595
